{"source": "paper PMC11397358", "about": "“Cytotoxic Activity of Novel GnRH Analogs Conjugated with Mitoxantrone in Ovarian Cancer Cells” (Molecules, 2024)", "target": "T1, human GnRH-R (Homo sapiens, UniProt P30968)", "T1 construct": "host or cells: HEK293 (ATCC CRL-1573)", "T1 sequence (P30968 1-328)": "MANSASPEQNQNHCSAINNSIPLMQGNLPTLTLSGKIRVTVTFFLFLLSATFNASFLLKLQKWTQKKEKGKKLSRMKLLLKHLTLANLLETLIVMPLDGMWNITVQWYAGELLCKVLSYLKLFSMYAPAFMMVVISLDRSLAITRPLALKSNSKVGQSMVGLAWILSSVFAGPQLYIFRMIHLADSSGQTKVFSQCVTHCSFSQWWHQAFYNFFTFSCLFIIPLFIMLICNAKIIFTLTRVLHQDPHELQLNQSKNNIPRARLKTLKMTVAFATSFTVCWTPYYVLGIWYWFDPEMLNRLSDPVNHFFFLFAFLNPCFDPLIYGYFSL", "test": "Calcium-based (fura-2) kinetic assay of GnRH-R agonism", "format": "cell-based", "settings": "HEK293 cells transfected with human GnRH-R; fura-2", "description": "For this purpose, fura-2-based kinetic assays to monitor the [Ca^2+] were performed in real-time using suspensions of HEK293 cells transiently transfected with the human GnRH-R (Figure 2A–I).\nHEK293 cells transfected with the human GnRH-R served as a platform with which to test for agonist actions of individual test compounds. These cells were loaded with the ratiometric Ca^2+ indicator fura-2 so that the change in intracellular [Ca^2+] in response to agonist stimulation could be monitored in real time in a 96-well format. For these assays, the individual test compounds were administered at the 100 s time point.\nTwo days post-transfection, the HEK293 cells were harvested via trypsinization to obtain single-cell suspensions that were plated at 80% density on rat tail collagen-coated 96-well Costar 3904 plates for loading with the ratiometric Ca^2+ indicator fura-2. Measurements of the intracellular [Ca^2+] were performed using a Flexstation 3 microplate reader (Molecular Devices, Sunnyvale, CA, USA). Briefly, test solutions containing GnRH-R agonists were administered to individual wells of a 96-well plate using the automated pipetting feature of the Flexstation under computer control. […] Emitted light was detected at 505/15 nm, and the ratio of emission light intensity due to excitation at 335/9 and 375/9 nm was calculated. […]", "data": [{"smiles": "O=C1c2c(O)ccc(O)c2C(=O)c2c(NCCNCCO)ccc(NCCNCCO)c21", "note": "[mitoxantrone]", "values": [{"measurement": "GnRH-R agonist action (Ca2+ elevation), in words", "value": "without effect"}]}]}
